Source: patent US7932252B2, “Aryl sulfonamides” (ChemoCentryx, Inc., priority 2004, dated 2011)
Read-outs that look alike come from different tables or passages of the source.

Molecular target: T1, CCR9 (Homo sapiens, UniProt P51686)
T1 construct: CCR9-expressing cells (such as a T cell line MOLT-4 cells); host or cells: MOLT-4
T1 sequence (P51686 1-369): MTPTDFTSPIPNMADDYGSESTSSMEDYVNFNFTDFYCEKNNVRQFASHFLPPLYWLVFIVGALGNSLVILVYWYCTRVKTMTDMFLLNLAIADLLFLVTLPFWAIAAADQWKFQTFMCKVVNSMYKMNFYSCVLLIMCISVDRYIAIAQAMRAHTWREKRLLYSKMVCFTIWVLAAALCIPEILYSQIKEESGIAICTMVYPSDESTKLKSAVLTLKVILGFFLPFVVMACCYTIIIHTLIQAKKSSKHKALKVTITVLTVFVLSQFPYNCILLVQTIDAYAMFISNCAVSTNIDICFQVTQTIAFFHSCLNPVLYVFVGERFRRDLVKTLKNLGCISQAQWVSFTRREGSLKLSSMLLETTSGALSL
Test: chemotaxis (conventional migration) assay and/or calcium mobilization (calcium flux) assay, TECK-induced, MOLT-4 cells
Type: cell-based
Details: read-out: IC50, activity in either or both of the chemotaxis assay and calcium mobilization assays
Protocol: MOLT-4 cells were obtained from the American Type Culture Collection (Manassas, Va.) and cultured in RPMI tissue culture medium supplemented with 10% fetal calf serum (FCS) in a humidified 5% CO2 incubator at 37° C. Recombinant human chemokine protein TECK was obtained from R&D Systems (Minneapolis, Minn.). ChemoTX® chemotaxis microchambers were purchased from Neuro Probe (Gaithersburg, Md.). CyQUANT® cell proliferation kits were purchased from Molecular Probes (Eugene, Oreg.). Calcium indicator dye Fluo-4 AM was purchased from Molecular Devices (Mountain View, Calif.).
Conventional migration assay was used to determine the efficacy of potential receptor antagonists in blocking migration mediated through CCR9. This assay was routinely performed using the ChemoTX® microchamber system with a 5-μm pore-sized polycarbonate membrane. To begin such an assay, MOLT-4 cells were harvested by centrifugation of cell suspension at 1000 PRM on a GS-6R Beckman centrifuge. The cell pellet was resuspended in chemotaxis buffer (HBSS with 0.1% BSA) at 5×10^6 cells/mL. Test compounds at desired concentrations were prepared from 10 mM stock solutions by serial dilutions in chemotaxis buffer. An equal volume of cells and compounds were mixed and incubated at room temperature for 15 minutes. Afterwards, 20 μL of the mixture was transferred onto the porous membrane of a migration microchamber, with 29 μL of 50 nM chemokine TECK protein placed at the lower chamber. Following a 150-minute incubation at 37° C., during which cells migrated against the chemokine gradient, the assay was terminated by removing the cell drops from atop the filter. To quantify cells migrated across the membrane, 5 μL of 7× CyQUANT® solution was added to each well in the lower chamber, and the fluorescence signal measured on a Spectrafluor Plus fluorescence plate reader (TECAN, Durham, N.C.). The degree of inhibition was determined by comparing migration signals between compound-treated and untreated cells. IC50 calculation was further performed by non-linear squares regression analysis using Graphpad Prism (Graphpad Software, San Diego, Calif.).
Calcium flux assay measures an increase in intracellular calcium following ligand-induced receptor activation. In the screen of CCR9 antagonists, it was used as a secondary assay carried out on a FLIPR® machine (Molecular Devices, Mountain View, Calif.). To begin an assay, MOLT-4 cells were harvested by centrifugation of cell suspension, and resuspended to 1.5×10^6 cells/mL in HBSS (with 1% fetal calf serum). Cells were then labeled with a calcium indicator dye Fluo-4 AM for 45 minutes at 37° C. with gentle shaking. Following incubation, cells were pelletted, washed once with HBSS and resuspended in the same buffer at a density of 1.6×10^6 cells/mL. One hundred microliters of labeled cells were mixed with 10 μL of test compound at the appropriate concentrations on an assay plate. Chemokine protein TECK was added at a final concentration of 25 nM to activate the receptor. The degree of inhibition was determined by comparing calcium signals between compound-treated and untreated cells. IC50 calculations were further performed by non-linear squares regression analysis using Graphpad Prism (Graphpad Software, San Diego, Calif.).
Activity is provided as follows for either or both of the chemotaxis assay and/or calcium mobilization assays, described above.

[1] = Table 1, assay not specified per compound
[2] = Table 2, assay not specified per compound
[3] = Table 3, assay not specified per compound
[4] = Table 4 (++), assay not specified per compound

Compound `CC(C)(C)c1ccc(S(=O)(=O)Nc2ccc(Cl)cc2Nc2ccncc2)cc1` has an IC50 [1] of under 500 nM.

With `CC(=O)N(c1ccncc1)c1cc(Cl)ccc1NS(=O)(=O)c1ccc(C(C)(C)C)cc1` the IC50 [1] was under 500 nM.

`CC(C)(C)c1ccc(S(=O)(=O)Nc2ccc(Cl)cc2C(O)c2cccnc2)cc1` (stereo not drawn) was tested, and the IC50 [1] was under 500 nM.

`CC(C)(C)c1ccc(S(=O)(=O)Nc2ccc(Cl)cc2C(O)c2cc[n+]([O-])cc2)cc1` (stereo not drawn) was tested, and the IC50 [1] was under 500 nM.

`C=CC(O)(c1cc[n+]([O-])cc1)c1cc(Cl)ccc1NS(=O)(=O)c1ccc(C(C)(C)C)cc1` (stereo not drawn) showed an IC50 [1] of under 500 nM.

For `CC(C)(C)c1ccc(S(=O)(=O)Nc2ccc(Cl)cc2C(N)c2cc[n+]([O-])cc2)cc1` (stereo not drawn), the IC50 [1] was under 500 nM.

Compound `CC(C)(C)c1ccc(S(=O)(=O)Nc2ccc(Cl)cc2C(F)(F)c2ccncc2)cc1` has an IC50 [1] of under 500 nM.

For `O=S(=O)(Nc1ccc(Cl)cc1C(O)c1ccncc1)c1ccc(-c2cnco2)cc1` (stereo not drawn), the IC50 [1] was under 500 nM.

In the case of `CCc1ccc(S(=O)(=O)Nc2ccc(Cl)cc2C(O)c2ccncc2)cc1` (stereo not drawn), the IC50 [1] is reported as under 500 nM.

In the case of `CC(C)(C)c1ccc(S(=O)(=O)Nc2ccc(Cl)cc2C(O)c2ccncc2)cc1` (stereo not drawn), the IC50 [1] is reported as under 500 nM.

`CC(C)(C)c1ccc(S(=O)(=O)Nc2ccc(Cl)cc2C(F)(F)c2cc[n+]([O-])cc2)cc1` gave an IC50 [1] of under 500 nM.

`CC(C)(C)c1ccc(S(=O)(=O)Nc2ccc(Cl)cc2C(O)c2ccccc2)cc1` (stereo not drawn) showed an IC50 [1] of under 500 nM.

`CC(C)Oc1ccc(S(=O)(=O)Nc2ccc(Cl)cc2C(O)c2ccncc2)cc1` (stereo not drawn) was tested, and the IC50 [1] was under 500 nM.

`C=C(c1cc[n+]([O-])cc1)c1cc(Cl)ccc1NS(=O)(=O)c1ccc(C(C)(C)C)cc1` was tested, and the IC50 [1] was under 500 nM.

With `CO/N=C(\c1ccncc1)c1cc(Cl)ccc1NS(=O)(=O)c1ccc(C(C)(C)C)cc1` the IC50 [1] was under 500 nM.

`CO/N=C(/c1ccncc1)c1cc(Cl)ccc1NS(=O)(=O)c1ccc(C(C)(C)C)cc1` was tested, and the IC50 [1] was under 500 nM.

In the case of `O=S(=O)(Nc1ccc(Cl)cc1-c1nccc2ccccc12)c1ccc(-c2cnco2)cc1`, the IC50 [2] is reported as under 2000 nM.

`CC(C)(C)c1ccc(S(=O)(=O)Nc2ccc(Cl)cc2-c2nnn[nH]2)cc1` showed an IC50 [2] of under 2000 nM.

In the case of `CC(C)(C)c1ccc(S(=O)(=O)Nc2ccc(Cl)cc2-c2cc3ccccc3cn2)cc1`, the IC50 [2] is reported as under 2000 nM.

With `CC(C)(C)c1ccc(S(=O)(=O)Nc2ccc(Cl)cc2-c2nccc3c[n+]([O-])ccc23)cc1` the IC50 [2] was under 2000 nM.

`CC(C)(C)c1ccc(S(=O)(=O)Nc2ccc(Cl)cc2-c2c3ccccc3cc[n+]2[O-])cc1` gave an IC50 [2] of under 2000 nM.

In the case of `CC(C)(C)c1ccc(S(=O)(=O)Nc2ccc(Cl)cc2-c2nccc3ccccc23)cc1`, the IC50 [2] is reported as under 2000 nM.

`CC(C)(C)c1ccc(S(=O)(=O)Nc2ccc(Cl)cc2-c2ccccn2)cc1` showed an IC50 [2] of under 2000 nM.

With `CN(C)C(c1ccncc1)c1cc(Cl)ccc1NS(=O)(=O)c1ccc(C(C)(C)C)cc1` (stereo not drawn) the IC50 [3] was 500 to 5000 nM.

In the case of `COC(c1cc[n+]([O-])cc1)c1cc(Cl)ccc1NS(=O)(=O)c1ccc(C(C)(C)C)cc1` (stereo not drawn), the IC50 [3] is reported as 500 to 5000 nM.

`CC(C)(C)c1ccc(S(=O)(=O)Nc2ccc(Cl)cc2C2(c3cc[n+]([O-])cc3)OCCO2)cc1` showed an IC50 [3] of 500 to 5000 nM.

`CC(C)(C)c1ccc(S(=O)(=O)Nc2ccc(Cl)cc2C(C)(O)c2cc[n+]([O-])cc2)cc1` (stereo not drawn) was tested, and the IC50 [3] was 500 to 5000 nM.

In the case of `CC(=O)c1ccc(S(=O)(=O)Nc2ccc(Cl)cc2C(O)c2cccnc2)cc1` (stereo not drawn), the IC50 [3] is reported as 500 to 5000 nM.

In the case of `CC(C)(C)c1ccc(S(=O)(=O)Nc2ccc(Cl)cc2C(C)(C)c2cc[n+]([O-])cc2)cc1`, the IC50 [3] is reported as 500 to 5000 nM.

For `CO/N=C(\c1ccccc1)c1cc(Cl)ccc1NS(=O)(=O)c1ccc(C)cc1`, the IC50 [3] was 500 to 5000 nM.

With `C=C(c1ccccc1)c1cc(Cl)ccc1NS(=O)(=O)c1ccc(C)cc1` the IC50 [3] was 500 to 5000 nM.

`COc1ccc(S(=O)(=O)Nc2ccc(Cl)cc2-c2ccccc2OC)cc1` was tested, and the IC50 [4] was 2000 to 10000 nM.

In the case of `COc1ccc(S(=O)(=O)Nc2ccc(Cl)cc2-c2ccc(F)cc2)cc1`, the IC50 [4] is reported as 2000 to 10000 nM.

`COc1ccc(S(=O)(=O)Nc2ccc(Cl)cc2-c2ccc(Cl)cc2)cc1` showed an IC50 [4] of 2000 to 10000 nM.

In the case of `COc1ccc(-c2cc(Cl)ccc2NS(=O)(=O)c2ccc(OC)cc2)cc1`, the IC50 [4] is reported as 2000 to 10000 nM.

Compound `COc1ccc(S(=O)(=O)Nc2ccc(Cl)cc2-c2ccc(C)cc2)cc1` has an IC50 [4] of 2000 to 10000 nM.

Work on `COc1ccc(S(=O)(=O)Nc2ccc(Cl)cc2-c2ccccc2)cc1` yielded an IC50 [4] of 2000 to 10000 nM.

With `COc1ccc(S(=O)(=O)Nc2ccc(Cl)cc2-c2cccc(OC)c2)cc1` the IC50 [4] was 2000 to 10000 nM.

Compound `CC(C)(C)c1ccc(S(=O)(=O)Nc2ccccc2-c2ncc(-c3ccccc3)[nH]2)cc1` has an IC50 [4] of 2000 to 10000 nM.
